Assay results taken from publication PMC6152638, “Anti-Inflammatory Phenolic Acid Esters from the Roots and Rhizomes of Notopterygium incisium and Their Permeability in the Human Caco-2 Monolayer Cell Model” (Molecules : A Journal of Synthetic Chemistry and Natural …, 2017).
Entries after “also recorded” stand apart in the source; their conditions may differ. Where two headings read alike, the source gives them in different places.

What was measured:
[1] = test system: NO production in LPS-activated RAW264.7 macrophages; assay: NO inhibitory assay in LPS-activated RAW264.7 macrophages (Griess); type: cell-based, murine; conditions: Mus musculus, read-out: IC50 on NO production
Procedure: Briefly, RAW 264.7 cells were maintained in DMEM containing 10% FBS, in a constant humidity atmosphere of 5% CO2 and 95% air at 37 °C, seeded in 96-well culture plates (Costar® #3599, Cambridge, MA, USA) at a density of 3 × 10^4 cells/well for 12 h, and then stimulated with LPS (1 μg/mL) and treated with various concentrations of assayed compounds for 24 h. After that, the cell culture supernatant (100 μL) was collected to react with Griess reagent (100 μL) for 15 min at room temperature. The nitrite in culture medium was measured as an indicator of NO production. NaNO2 was used to generate a standard curve, and NO production was determined by measuring the optical density at 540 nm in comparison with the standard curve. […] The experiments were performed in parallel three times, and L-NIL was used as a positive control. Cell viability (>95%) was assessed by using an MTT assay. The IC50 values were calculated by the software SPSS 16.0 (SPSS Inc., Chicago, IL, USA).

[2] = test system: NO production in LPS-stimulated RAW264.7 cells; design: method as in PMID 28333094; conditions: cited from earlier work
Caco-2 cell monolayer = assay: Transport in the human intestinal Caco-2 cell monolayer model; type: in vitro ADME; conditions: for amount in the receiving chambers: HPLC quantification after transport; for absorption assignment: assigned from Papp AP→BL against propranolol and atenolol
Procedure: (§1) For confluence and differentiation, cells were seeded at a density of 1 × 10^5 cells/cm^2 into 12-well Transwell plates (insert diameter 12 mm, pore size 3.0 μm, membrane growth area 1.12 cm^2, Costar® #3402) and were allowed to grow for 21 days before the permeation experiment. On Day 21, the monolayers with TEER values >500 Ω·cm^2 were qualified for the transport experiment. The transport study was initiated by the careful removal of the culture medium from AP and BL side of the inserts. Caco-2 monolayers were rinsed twice with pre-warmed HBSS and were incubated by pre-warmed HBSS for 30 min at 37 °C. Stock solutions of test phenolic acid esters were prepared in DMSO and diluted to 50 µM with HBSS. […] The assayed solutions (50 µM) were added to the AP side (0.5 mL, for absorption transport) or BL side (1.5 mL, for efflux transport) of the inserts, while the receiving chamber contained the corresponding volume of HBSS. Incubation was performed at 37 °C for 90 min, with shaking at 50 rpm. Samples were collected from the inserts, then frozen, lyophilized, redissolved in MeOH, and injected into HPLC system for quantitative analysis.
(§2) The Papp values were calculated as the following equation:Papp = (dQ/dt) × (1/A) × (1/C0) (cm/s)(1) where dQ/dt is the rate of the appearance of the test compound on the receiver compartment (μmol/s), C0 is the initial test compound concentration on the donor compartment (μmol/mL), and A is the surface area of Caco-2 monolayer (cm^2).

[3] = as above; type: in vitro ADME; conditions: human; for Papp B→A at 90 min, 50 µM / efflux ratio at 90 min, 50 µM: Caco-2; for Papp B→A at 90 min, 50 µM: basolateral to apical; for efflux ratio at 90 min, 50 µM: ratio of Papp BL→AP to Papp AP→BL
Procedure: as §1, §2

RAW264.7 cells = assay: MTT cytotoxicity assay in RAW264.7 cells; conditions: viability less than 95% of control considered toxic
Procedure: The cell viability less than 95% of control was considered toxic.
Cell viability (>95%) was assessed by using an MTT assay.

[4] = Stability of the phenolic acid esters in HPLC method validation (Table S1); type: physicochemical
Procedure: Quantitative analysis of nine phenolic acid esters was performed on a Dionex Ultimate™ 3000 UHPLC system (Dionex Corp., Sunnyvale, CA, USA), comprised of Ultimate 3000 pump, autosampler, column compartment, and diode array detector. The signals were acquired and processed applying a Chromeleon version 6.80 software (Dionex Corp., Sunnyvale, CA, USA). HPLC separation was performed on a C18 Luna® column (250 mm × 4.60 mm i.d., 5 μm) (Phenomenex, Torrance, CA, USA). […] The detection wavelength was set at 305 nm for 2, 270 nm for 3, 259 nm for 4, 325 nm for 1 and 5–9. Column oven was maintained at 25 °C, and the injected volume was 20 μL. The calibration curves were constructed by plotting peak area (y, mAU × min) versus concentration (x, µM). The linear equations across 1–75 µM were y = 0.0087x − 0.0041 with r^2 of 0.9994 for 1, y = 0.0066x − 0.0013 with r^2 of 0.9999 for 2, y = 0.0667x − 0.0269 with r^2 of 0.9997 for 4, y = 0.0917x + 0.0040 with r^2 of 0.9998 for 5, y = 0.0614x − 0.0038 with r^2 of 0.9999 for 6, y = 0.0623x + 0.0051 with r^2 of 0.9999 for 8, and y = 0.0639x − 0.0464 with r^2 of 0.9978 for 9. […] Quantification was carried out by peak area measurements in comparison with the calibration curves.

[5] = Caco-2, apical to basolateral, 50 µM, incubation up to 90 min, n = 4
[6] = Caco-2, values as stated in text
[7] = 50 µM, incubation up to 90 min, n = 4
[8] = RAW264.7, LPS 1 μg/mL, 24 h, n = 3

SMILES | IC50 ([1]; RAW264.7, 24 h) [µM] | IC50 [2] [µM] | amount in the receiving chambers (Caco-2 cell monolayer) | absorption assignment (Caco-2 cell monolayer) | Papp A→B at 90 min, 50 µM [3, 5] [×10⁻⁶ cm/s] | Papp A→B at 90 min, 50 µM [3, 6] [×10⁻⁶ cm/s] | Papp B→A at 90 min, 50 µM [3, 7] [×10⁻⁶ cm/s] | cytotoxicity (MTT) (RAW264.7 cells; 0.25 to 8 μM) | efflux ratio at 90 min, 50 µM [3] | IC50 [1, 8] [µM] | Stability ([4]; QC 5 μM) [%] | Stability ([4]; QC 25 μM) [%] | Stability ([4]; QC 50 μM) [%] | cytotoxicity (MTT) (RAW264.7 cells; 0.78125–25 μM) | cytotoxicity (MTT) (RAW264.7 cells; 3.125–100 μM) | cytotoxicity (MTT) (RAW264.7 cells; 1.5625–50 μM)
CC(=N)NCCCC[C@H](N)C(=O)O [L-NIL, reference compound] | 9.37 ± 1.57 |  |  |  |  |  |  |  |  |  |  |  |  |  |  | 
COc1cc(/C=C/C(=O)OCC(CO)OC(=O)/C=C/c2ccc(O)cc2)ccc1O (stereo not drawn) [1-O-feruloyl-2-O-p-coumaroylglycerol] |  | 9.12 ± 0.72 |  |  |  |  |  |  |  |  |  |  |  |  |  | 
CCCCCCCCCCCCCCCCCCCCCCCCCCCCCCOC(=O)/C=C/c1ccc(O)c(OC)c1 [Compound 7, trans-triacontyl-4-hydroxy-3-methoxycinnamate] |  |  | below the lower limit of detection | poorly absorbed; also recorded: hardly permeate | < 0.02 | < 0.1 | < 0.01 | had cytotoxicity |  |  |  |  |  |  |  | 
CC/C(C)=C/CCOC(=O)/C=C/c1ccc(O)c(OC)c1 [Compound 1, 4-methyl-3-trans-hexenylferulate] |  |  |  | poorly absorbed | 0.5 ± 0.12 | < 1 | 0.62 ± 0.12 |  | 1.24 | 1.01 ± 0.08 | 93.56±1.02 | 95.65±0.56 | 92.25±1.63 | no toxicity |  | 
COc1ccc(C(=O)OCCc2ccc(O)cc2)cc1 [Compound 4, p-hydroxyphenethyl anisate] |  |  |  | poorly absorbed | 0.36 ± 0.04 | < 1 | 0.05 ± 0.01 |  | 0.15 | 11.1 ± 1.43 | 92.28±2.07 | 100.74±2.15 | 95.85±2.01 |  | no toxicity | 
COc1cc(/C=C/C(=O)O)ccc1O [Compound 10, ferulic acid, reference compound] |  |  |  |  |  |  |  |  |  | 67.9 ± 0.91 |  |  |  |  |  | 
COc1cc(/C=C/C(=O)OCCc2ccccc2)ccc1O [Compound 9, phenethylferulate] |  |  |  | poorly absorbed | 0.66 ± 0.16 | < 1 | 0.7 ± 0.18 |  | 1.06 | 2.73 ± 0.58 | 92.26±2.89 | 93.71±1.88 | 101.99±1.32 |  |  | no toxicity
CC(C)NCC(O)COc1cccc2ccccc12 (stereo not drawn) [propranolol, reference compound] |  |  |  |  |  | 22.9 |  |  |  |  |  |  |  |  |  | 
COc1cc(/C=C/C(=O)OC(C)C)ccc1O [Compound 6, isopropylferulate] |  |  |  | good absorption; also recorded: well-absorbed | 17.6 ± 2.27 | > 10 | 13.8 ± 2.74 |  | 0.79 | 12.6 ± 2.8 | 95.08±1.56 | 102.02±1.96 | 102.05±1.39 |  |  | no toxicity
O=C(O)/C=C/c1ccccc1 [Compound 11, cinnamic acid, reference compound] |  |  |  |  |  |  |  |  |  | > 200 |  |  |  |  |  | 
COc1cc(/C=C/C(=O)OC2CC3CCC2(C)C3(C)C)ccc1O (stereo not drawn) [Compound 5, (−)-bornylferulate] |  |  |  | poorly absorbed; also recorded: hardly permeate | 0.08 ± 0.02 | < 0.1 | 0.13 ± 0.02 |  | 1.69 | 4.63 ± 1.73 | 96.29±0.99 | 94.56±0.96 | 95.85±1.01 | no toxicity |  | 
CC1(C)C2CCC1(C)C(OC(=O)C=Cc1ccccc1)C2 (stereo not drawn) [Compound 3, bornylcinnamate] |  |  | below the lower limit of detection | poorly absorbed; also recorded: hardly permeate | < 0.05 | < 0.1 | < 0.02 |  |  | 70.5 ± 25.9 |  |  |  |  | no toxicity | 
COc1ccc(CCOC(=O)/C=C/c2ccc(O)c(OC)c2)cc1 [Compound 8, 4-methoxyphenethylferulate] |  |  |  | moderately absorbed | 2.21 ± 0.07 | ~1 | 2.55 ± 0.44 |  | 1.15 | 2.47 ± 0.64 | 93.28±2.17 | 95.45±1.12 | 102.58±1.54 |  |  | no toxicity
O=C(OCc1ccccc1)c1ccccc1O [Compound 2, benzylsalicylate] |  |  |  | good absorption; also recorded: well-absorbed | 18 ± 1.63 | > 10 | 13.4 ± 0.63 |  |  | 53.7 ± 4.13 | 98.84±2.09 | 94.57±1.85 | 97.25±2.09 |  |  | 
COc1cc(/C=C/C(=O)OCC(O)COC(=O)/C=C/c2ccc(O)c(OC)c2)ccc1O [1,3-O-diferuloylglycerol] |  | 12 ± 1.07 |  |  |  |  |  |  |  |  |  |  |  |  |  | 
